Data on 64 molecules can be found in a melting point compilation (Tetko et al.; mined from patent text by program, amines drawn as free bases though some values may be those of a salt).

One may read the melting point as the temperature, or range, at which the solid turns liquid.

The molecule `O=C1c2ccccc2C(=O)N1CC(=O)N1c2ccccc2N(Cc2ccc([N+](=O)[O-])cc2)C(=O)[C@H]2CCC[C@H]21` (relative stereo) yielded a melting point of 224 to 225 °C. Next, `O=Nc1c(-c2ccccc2)nc2ncccn12`: 223 to 225 °C. Next, `CC(C)(C)CCP1C(O)C(O)P(CCC(C)(C)C)C(O)C1O` (centres undefined): 186 to 210 °C; `CC1CCN(c2nc(N)c3ccccc3n2)CC1`: 190 °C. Next, `CNC(=O)c1cccc2cccc(NC(=O)c3ccc(F)c(F)c3)c12`: above 250 °C; `FC1=CC2NC(=S)CCC2C=C1c1cccnc1` (centres undefined): 248 °C; `Cc1nc2c3c(ccc2n1C1CC1)C(=O)[C@H](O)[C@@H](c1ccccc1)O3`: 178 °C.

Turning to `CCOC(=O)c1cn(CC)c2nc(N3CCN(C(C)=O)CC3)ncc2c1=O`, the melting point lay in the range of 208 to 210 °C. Molecule `Cc1nc(-n2cc(C(=O)NCc3ccccc3)nn2)sc1C(=O)NCc1ccccc1` registered a melting point of 178 to 180 °C. With `COc1cc(C=O)ccc1OCc1csc(N2CCOCC2)n1`, the melting point was in the range of 122 to 123 °C. With `CNC1=NS(=O)(=O)N=C1NCCSCc1ccc(CN(C)C)o1` the figure was 92 to 96 °C; with `Cc1ccc(C(=O)Nc2ccc(N3CCCC3)c(C(F)(F)F)c2)cc1Nc1nccc(-c2cccnc2)n1`, 129 to 130 °C; with `COc1cc2c(cc1OC)C(CBr)OCCC2` (centres undefined), 44 to 45 °C. On to `CCOC(=O)C(CC#Cc1ccccc1)(NC(C)=O)C(=O)OCC`, for which the melting point was 94 to 96.5 °C. In turn, `CCCCOC(=O)c1nn(-c2ccc(I)cc2)c(C)cc1=O` returned a melting point of 134 to 137 °C.

Molecule `N#Cc1cc(Cl)cc(Oc2ccc(CC(=O)Nc3ccc(S(N)(=O)=O)cc3Cl)cc2Br)c1` registered a melting point of 205 to 207 °C. `O=C(O)C(=O)c1ccsc1` came in with a melting point of 63 °C.

Turning to `CCCCC1Cc2c(c3cccnc3n(-c3ccccc3)c2=O)O1` (centres undefined), the melting point lay in the range of 179 to 180 °C.

In turn, `O=C(CO)Nc1cc(-c2ccncc2)c[nH]c1=O` registered a melting point of 271 to 274 °C. With `Cn1nnc2ccc(C(O)c3ccccc3)cc21` (centres undefined) the figure was 145 °C. The molecule `COC(=O)c1ccccc1S(=O)(=O)NC(=O)Nc1nc(OC)cc(OC)n1` gave a melting point of 185 to 190 °C. Turning to `CCON=Cc1ccccc1OCc1ccccc1C(=COC)C(=O)OC`, the melting point lay within 86 to 88 °C. With `CONC(=O)c1nc(-c2ccc(Cl)c(OC)c2F)cc(N)c1Cl` the figure was 215 to 217 °C.

For `Clc1ncnc2c1ncn2C1CCCCO1` (centres undefined), the melting point was 70 to 71 °C. The molecule `O=C(O)c1ccn(-c2ccc(Cl)cc2)c1` yielded a melting point of 222 to 224 °C. For the molecule `COc1ccc(OC)c(C(=O)C=Cc2cccc(C(=O)O)c2)c1`, the melting point was in the range of 152 to 155 °C. Turning to `CCCCCCCCCCCCCCCCCCOC(C)c1ccc(-c2ccc(C(=O)O)cc2)cc1` (single isomer, unassigned; (+)), the melting point is 145 to 146 °C. `COc1cc2c(cc1OC)CN(CCc1ccc([N+](=O)[O-])cc1)CC2` gave a melting point of 118 to 119 °C. For `Cc1ccccc1-c1cc(=O)c2cc(O)ccc2o1`, the melting point was 180 °C. Molecule `O=C(Cn1cc[nH]c(=O)c1=O)OC(c1ccccc1)c1ccccc1` returned a melting point of 97 to 98 °C.

Turning to `O=C(O)CCc1oc(SC2CCCCC2)nc1-c1ccc(Cl)cc1`, the melting point lay in the range of 136 to 137 °C.

`COC(=O)c1cc(N)c(F)cc1Cl` gave a melting point of 76 to 78 °C. Next, `Cc1cccc(-c2nc3ccc(N(C)C)nn3c2-c2ccnc(NC3CCCCC3)c2)c1`: 191 to 192 °C; `CC(C)c1nnc(-c2ccc(-c3ccccc3)cc2)n1-c1ccccc1F`: 201 to 204 °C. With `CN1c2cccc3c2N(CCC3)S1(=O)=O` the figure was 103 to 104 °C; with `N#Cc1nn(-c2c(Cl)cc(C(F)(F)F)cc2Cl)cc1-c1occc1Br`, 99 to 101 °C; with `CC(=O)OCCc1c([N+](=O)[O-])cc(OCc2ccccc2)c2ccccc12`, 82 to 87 °C. Consider `CC(=O)NC[C@H]1CN(c2ccc3c(c2)OCCCC3=O)C(=O)O1`, for which the melting point lay in the range of 123 to 128 °C.

Molecule `CC(=O)Oc1ccc(S(=O)(=O)Cl)cc1N=NC(C(C)=O)C(=O)Nc1ccccc1` (centres undefined) returned a melting point of 225 to 226 °C. Next, `C[C@H]1Cn2c(=S)[nH]c3cccc(c32)CN1CC1CC1`: 197 °C; `O=C(Nc1cc2ncc(CN3CCCC3)cc2cc1F)c1ccc(-c2ccccc2)cc1`: 206 to 208 °C; `CCc1nc2cc(C(F)(F)F)c(Cl)cc2n1-c1ccc(CCOC(=O)NS(=O)(=O)c2cn(C)cn2)cc1`: 204 °C. Next, `COC(=O)c1ccc(-n2cc3ccccc3n2)cc1`: 80 to 81 °C; `c1ccc(CN2CCC(Oc3ccccn3)CC2)cc1`: 75 °C; `N#Cc1ccc2c(c1)NC(=O)C2c1ncnc2c1cnn2C1CCCC1` (centres undefined): 335 to 338 °C. For the molecule `Cn1ncc(C(=O)N2CCC2)c1C(=O)Nc1ccn2nc(-c3ccnc(F)c3)nc2c1`, the melting point was above 280 °C. The molecule `NS(=O)(=O)c1cc(C(=O)O)cc([N+](=O)[O-])c1Oc1cccc(C(F)(F)F)c1` came in with a melting point of 210 °C. With `CCN(CC)C(=O)OC1c2ccccc2C(=O)N1c1ccc2ccc(Cl)nc2n1` (centres undefined) the figure was 142 to 144 °C; with `CCC[C@H](NC(=O)/C=C/S(=O)(=O)c1ccccc1)C(=S)OC`, 131 to 132 °C.

With `C=CCNC(=NC#N)NCC=C`, the melting point lay within 66.5 to 67 °C. In the case of `COCCNC(=O)c1cccc(-c2ccc(F)c3cc(Cc4cc(F)cc(Cl)c4)sc23)c1`, the melting point lay in the range of 90 to 110 °C.

Molecule `COc1cc(O)cc(-c2cc3ccc(O)cc3o2)c1CC=C(C)C` had a melting point of 93 to 94 °C. In turn, `COc1cc(CCNC(=O)N(C)O)cc(OC)c1OC` gave a melting point of 100 to 102 °C. With `CCn1cc(CC(=O)O)c(OCCCn2cc(C(=O)NCc3ccc(Cl)cc3Cl)c(OC(C)C)n2)n1` the figure was 138 to 139 °C; with `O=S1(=O)c2ccccc2Cc2ccc(-c3nnn[nH]3)cc21`, 233 °C. Next, `Cc1c(C)n(CCF)c2c(OCc3ccccc3)nncc12`: 106 to 107 °C; `CCOC(=O)C(C)(NC(=O)Cc1ccc(O)c2ncccc12)C(=O)OCC`: 153 to 154 °C; `CCN(CC)c1nc(Cl)nc2c(SC)ncnc12`: 90 to 91 °C. With `Nc1cc(C(=O)O)cc(OCc2ccc(Cl)cc2)c1C(=O)c1ccccc1` the figure was 248 to 249 °C.

In turn, `CCC(CC)C(=O)Nc1nc(C)co1` gave a melting point of 106 °C.

`CC(C)(C)[Si](C)(C)OC1CN(S(C)(=O)=O)Cc2nc3c(N)nc4ccccc4c3n2C1` (centres undefined) showed a melting point of 256 to 258 °C. Next, `Cc1cc(C(=O)N2CC(O)C2)ncc1C(c1cc(F)ccc1F)S(=O)(=O)c1ccc(F)cc1` (centres undefined): 219 to 221 °C; `Cc1nc2cc(NC(=O)c3cc4cc(F)ncc4n3Cc3cccc(F)c3)ccc2n1C`: 245 to 247 °C.

The molecule `Cc1cc(Cl)cc(C(=O)Nc2cccc(F)c2)n1` showed a melting point of 123 °C.
